Legend:
Assay type in all cases: in vivo
Details in all cases: 19 to 21 days
soybean (Glycine max) [1] = test: Test C preemergence, soybean
Text: (§1) Seeds of plant species selected from corn (Zea mays), soybean (Glycine max), velvetleaf (Abutilon theophrasti), palmer pigweed (Amaranthus palmeri), waterhemp (common waterhemp, Amaranthus rudis), surinam grass (Brachiaria decumbens), large (Lg) crabgrass (Digitaria sanguinalis), fall panicum (Panicum dichotomiflorum), giant foxtail (Setaria faberi), ragweed (common ragweed, Ambrosia elatior), barnyardgrass (Echinochloa crus-galli), E. Black Nightshade (Solanum ptycanthum), and horseweed (Conyza canadensis), were planted into a silt loam soil and treated preemergence with test chemicals formulated in a non-phytotoxic solvent mixture which included a surfactant.
(§2) Treated plants and controls were maintained in a greenhouse for 19 to 21 days, after which time all species were compared to controls and visually evaluated. Plant response ratings, summarized in Table C, are based on a scale of 0 to 100 where 0 is no effect and 100 is complete control.

[2] = test system: surinam grass (Brachiaria decumbens); test: Test B preemergence, surinam grass
Text: (§3) Seeds of plant species selected from blackgrass (Alopecurus myosuroides), Italian ryegrass (Lolium multiflorum), wheat, winter (winter wheat, Triticum aestivum), corn (Zea mays), large (Lg) crabgrass (Digitaria sanguinalis), giant foxtail (Setaria faberi), johnsongrass (Sorghum halepense), ragweed (common ragweed, Ambrosia elatior), soybean (Glycine max), barnyardgrass (Echinochloa crus-galli), waterhemp (common waterhemp, Amaranthus rudis), palmer pigweed (Amaranthus palmeri), and surinam grass (Brachiaria decumbens), were planted into a silt loam soil and treated preemergence with test chemicals formulated in a non-phytotoxic solvent mixture which included a surfactant.
(§4) Treated plants and controls were maintained in a greenhouse for 19 to 21 days, after which time all species were compared to controls and visually evaluated. Plant response ratings, summarized in Table B, are based on a scale of 0 to 100 where 0 is no effect and 100 is complete control.

[3] = test system: surinam grass (Brachiaria decumbens); test: Test C preemergence, surinam grass
Text: as §1, §2

[4] = test system: ragweed (common ragweed, Ambrosia elatior); test: Test B preemergence, ragweed
Text: as §3, §4

[5] = test system: palmer pigweed (Amaranthus palmeri); test: Test B preemergence, palmer pigweed
Text: as §3, §4

soybean (Glycine max) [6] = test: Test B preemergence, soybean
Text: as §3, §4

[7] = test system: fall panicum (Panicum dichotomiflorum); test: Test C preemergence, fall panicum
Text: as §1, §2

[8] = test system: waterhemp (common waterhemp, Amaranthus rudis); test: Test C preemergence, waterhemp
Text: as §1, §2

[9] = test system: barnyardgrass (Echinochloa crus-galli); test: Test C preemergence, barnyardgrass
Text: as §1, §2

`CN1C[C@H](c2cc(C(F)(F)F)n(C)n2)[C@@H](C(=O)Nc2cccc(F)c2F)C1=O` [Compound 13, (3S,4R)—N-(2,3-difluorophenyl)-1-methyl-4-[1-methyl-5-(trifluoromethyl)-1H-pyrazol-3-yl]-2-oxo-3-pyrrolidinecarboxamide] was tested, and the “Plant response rating (0 no effect, 100 complete control) Soybean” value (soybean (Glycine max) [1]; 4 g ai/ha Preemergence) was 0, the “Plant response rating (0 no effect, 100 complete control) Soybean” value (soybean (Glycine max) [1]; 8 g ai/ha Preemergence) was 0 and the “Plant response rating (0 no effect, 100 complete control) Soybean” value (soybean (Glycine max) [1]; 16 g ai/ha Preemergence) was 0. The “Plant response rating (0 no effect, 100 complete control) Soybean” value (soybean (Glycine max) [1]; 31 g ai/ha Preemergence) was 0, the “Plant response rating (0 no effect, 100 complete control) Soybean” value (soybean (Glycine max) [1]; 62 g ai/ha Preemergence) was 0 and the “Plant response rating (0 no effect, 100 complete control) Soybean” value (soybean (Glycine max) [1]; 125 g ai/ha Preemergence) was 0. The “Plant response rating (0 no effect, 100 complete control) Surinam Grass” value ([2]; 16 g ai/ha Preemergence) was 65, the “Plant response rating (0 no effect, 100 complete control) Surinam Grass” value ([2]; 31 g ai/ha Preemergence) was 78 and the “Plant response rating (0 no effect, 100 complete control) Surinam Grass” value ([2]; 62 g ai/ha Preemergence) was 95. The “Plant response rating (0 no effect, 100 complete control) Surinam Grass” value ([2]; 125 g ai/ha Preemergence) was 93, the “Plant response rating (0 no effect, 100 complete control) Surinam Grass” value ([3]; 4 g ai/ha Preemergence) was 30 and the “Plant response rating (0 no effect, 100 complete control) Surinam Grass” value ([3]; 8 g ai/ha Preemergence) was 30. For the same molecule, the “Plant response rating (0 no effect, 100 complete control) Surinam Grass” value ([3]; 16 g ai/ha Preemergence) was 58, the “Plant response rating (0 no effect, 100 complete control) Surinam Grass” value ([3]; 31 g ai/ha Preemergence) was 90 and the “Plant response rating (0 no effect, 100 complete control) Surinam Grass” value ([3]; 62 g ai/ha Preemergence) was 89. The “Plant response rating (0 no effect, 100 complete control) Surinam Grass” value ([3]; 125 g ai/ha Preemergence) was 99, the “Plant response rating (0 no effect, 100 complete control) Ragweed” value ([4]; 16 g ai/ha Preemergence) was 0 and the “Plant response rating (0 no effect, 100 complete control) Ragweed” value ([4]; 31 g ai/ha Preemergence) was 0. For the same molecule, the “Plant response rating (0 no effect, 100 complete control) Ragweed” value ([4]; 62 g ai/ha Preemergence) was 0, the “Plant response rating (0 no effect, 100 complete control) Ragweed” value ([4]; 125 g ai/ha Preemergence) was 0 and the “Plant response rating (0 no effect, 100 complete control) Pigweed, Palmer” value ([5]; 16 g ai/ha Preemergence) was 0. The “Plant response rating (0 no effect, 100 complete control) Pigweed, Palmer” value ([5]; 31 g ai/ha Preemergence) was 0, the “Plant response rating (0 no effect, 100 complete control) Pigweed, Palmer” value ([5]; 62 g ai/ha Preemergence) was 0 and the “Plant response rating (0 no effect, 100 complete control) Pigweed, Palmer” value ([5]; 125 g ai/ha Preemergence) was 0. The “Plant response rating (0 no effect, 100 complete control) Soybean” value (soybean (Glycine max) [6]; 16 g ai/ha Preemergence) was 0, the “Plant response rating (0 no effect, 100 complete control) Soybean” value (soybean (Glycine max) [6]; 31 g ai/ha Preemergence) was 0 and the “Plant response rating (0 no effect, 100 complete control) Soybean” value (soybean (Glycine max) [6]; 62 g ai/ha Preemergence) was 0. For the same molecule, the “Plant response rating (0 no effect, 100 complete control) Soybean” value (soybean (Glycine max) [6]; 125 g ai/ha Preemergence) was 8, the “Plant response rating (0 no effect, 100 complete control) Panicum” value ([7]; 4 g ai/ha Preemergence) was 0 and the “Plant response rating (0 no effect, 100 complete control) Panicum” value ([7]; 8 g ai/ha Preemergence) was 0. The “Plant response rating (0 no effect, 100 complete control) Panicum” value ([7]; 16 g ai/ha Preemergence) was 0, the “Plant response rating (0 no effect, 100 complete control) Panicum” value ([7]; 31 g ai/ha Preemergence) was 0 and the “Plant response rating (0 no effect, 100 complete control) Panicum” value ([7]; 62 g ai/ha Preemergence) was 53. The “Plant response rating (0 no effect, 100 complete control) Panicum” value ([7]; 125 g ai/ha Preemergence) was 48, the “Plant response rating (0 no effect, 100 complete control) Waterhemp” value ([8]; 4 g ai/ha Preemergence) was 0 and the “Plant response rating (0 no effect, 100 complete control) Waterhemp” value ([8]; 8 g ai/ha Preemergence) was 0. For the same molecule, the “Plant response rating (0 no effect, 100 complete control) Waterhemp” value ([8]; 16 g ai/ha Preemergence) was 0, the “Plant response rating (0 no effect, 100 complete control) Waterhemp” value ([8]; 31 g ai/ha Preemergence) was 0 and the “Plant response rating (0 no effect, 100 complete control) Waterhemp” value ([8]; 62 g ai/ha Preemergence) was 20. The “Plant response rating (0 no effect, 100 complete control) Waterhemp” value ([8]; 125 g ai/ha Preemergence) was 20, the “Plant response rating (0 no effect, 100 complete control) Barnyardgrass” value ([9]; 4 g ai/ha Preemergence) was 0 and the “Plant response rating (0 no effect, 100 complete control) Barnyardgrass” value ([9]; 8 g ai/ha Preemergence) was 28. For the same molecule, the “Plant response rating (0 no effect, 100 complete control) Barnyardgrass” value ([9]; 16 g ai/ha Preemergence) was 63, the “Plant response rating (0 no effect, 100 complete control) Barnyardgrass” value ([9]; 31 g ai/ha Preemergence) was 68 and the “Plant response rating (0 no effect, 100 complete control) Barnyardgrass” value ([9]; 62 g ai/ha Preemergence) was 97. For the same molecule, the “Plant response rating (0 no effect, 100 complete control) Barnyardgrass” value ([9]; 125 g ai/ha Preemergence) was 97.
